Measured values taken from patent US20160108008A1, “Substituted N-(Tetrazol-5-yl)- and N-(Triazol-5-yl)arylcarboxamide Compounds and Their Use as Herbicides” (BASF SE, priority 2013, published 2016).
Marks after values point to notes of the source that are not given here.

Legend:
Format in all cases: in vivo
Abutilon theophrasti = experiment: greenhouse pre-emergence treatment, ABUTH; details: pre-emergence (value labeled *), scale 0-100
Source text: (§1) The culture containers used were plastic flowerpots containing loamy sand with approximately 3.0% of humus as the substrate. The seeds of the test plants were sown separately for each species.
(§2) For the pre-emergence treatment, the active ingredients, which had been suspended or emulsified in water, were applied directly after sowing by means of finely distributing nozzles. The containers were irrigated gently to promote germination and growth and subsequently covered with transparent plastic hoods until the plants had rooted. This cover caused uniform germination of the test plants, unless this has been impaired by the active ingredients.
(§3) Depending on the species, the plants were kept at 10-25° C. or 20-35° C. The test period extended over 2 to 4 weeks. During this time, the plants were tended, and their response to the individual treatments was evaluated.
(§4) Evaluation was carried out using a scale from 0 to 100. 100 means no emergence of the plants, or complete destruction of at least the aerial moieties, and 0 means no damage, or normal course of growth. A good herbicidal activity is given at values of at least 70 and a very good herbicidal activity is given at values of at least 85.
(§5) The plants used in the greenhouse experiments belonged to the following species:
(§6) Following representative compounds of formula I according to Table 9 were used in post-emergence treatments in greenhouse experiments (values labeled with * result from pre-emergence experiments): […]

Chenopodium album = experiment: greenhouse post-emergence treatment, CHEAL; details: scale 0-100
Source text: as §1
(§7) For the post-emergence treatment, the test plants were first grown to a height of 3 to 15 cm, depending on the plant habit, and only then treated with the active ingredients which had been suspended or emulsified in water. For this purpose, the test plants were either sown directly and grown in the same containers, or they were first grown separately as seedlings and transplanted into the test containers a few days prior to treatment.
as §3, §4, §5, §6

Amaranthus retroflexus [1] = experiment: greenhouse post-emergence treatment, AMARE; details: scale 0-100
Source text: as §1, §7, §3, §4, §5, §6

Polygonum convolvulus = experiment: greenhouse post-emergence treatment, POLCO; details: scale 0-100
Source text: as §1, §7, §3, §4, §5, §6

Amaranthus retroflexus [2] = experiment: greenhouse pre-emergence treatment, AMARE; details: pre-emergence (value labeled *), scale 0-100
Source text: as §1, §2, §3, §4, §5, §6

Agrostis spica-venti = experiment: greenhouse pre-emergence treatment, APESV; details: pre-emergence (value labeled *), scale 0-100
Source text: as §1, §2, §3, §4, §5, §6

Echinochloa crus-galli = experiment: greenhouse post-emergence treatment, ECHCG; details: scale 0-100
Source text: as §1, §7, §3, §4, §5, §6

| SMILES | [%] damage to weed VI (CHEAL) (Chenopodium album; 250 g/ha) | [%] damage to weed III (AMARE) (Amaranthus retroflexus [2]; 250 g/ha) | [%] damage to weed III (AMARE) (Amaranthus retroflexus [1]; 250 g/ha) | [%] damage to weed I (ABUTH) (Abutilon theophrasti; 250 g/ha) | [%] damage to weed VII (ECHCG) (Echinochloa crus-galli; 250 g/ha) | other results |
| --- | --- | --- | --- | --- | --- | --- |
| COc1c(Cl)cc(F)c(C(=O)Nc2nnnn2C)c1Cl [compound 9] |  |  |  |  |  | [%] damage to weed I (ABUTH) (Abutilon theophrasti; 196 g/ha): 100* %; [%] damage to weed VI (CHEAL) (Chenopodium album; 196 g/ha): 100%; [%] damage to weed III (AMARE) (Amaranthus retroflexus [1]; 196 g/ha): 100% |
| Cc1c(C(=O)Nc2ncnn2C)cc(F)cc1S(C)(=O)=O [compound 10] | 100% | 95* % | 100; % |  |  | [%] damage to weed IX (POLCO) (Polygonum convolvulus; 250 g/ha): 100% |
| CCSc1c(Cl)cc(F)c(C(=O)Nc2ncnn2C)c1Cl [compound 11] | 100% |  | 100% | 100* % |  | [%] damage to weed IX (POLCO) (Polygonum convolvulus; 250 g/ha): 100% |
| CCSc1c(Cl)cc(F)c(C(=O)Nc2nnnn2C)c1Cl [compound 12, 2,4-dichloro-3-ethylsulfanyl-6-fluoro-N-(1-methyltetrazol-5-yl)benzamide] | 100% |  | 100% | 100* % |  | [%] damage to weed IX (POLCO) (Polygonum convolvulus; 250 g/ha): 100% |
| CCS(=O)(=O)c1c(Cl)cc(F)c(C(=O)Nc2nnnn2C)c1Cl [compound 13, 2,4-Dichloro-3-ethylsulfonyl-6-fluoro-N-(1-methyltetrazol-5-yl)benzamide] | 100% |  | 100% | 100* % |  | [%] damage to weed IX (POLCO) (Polygonum convolvulus; 250 g/ha): 100% |
| CC[S+]([O-])c1c(Cl)cc(F)c(C(=O)Nc2ncnn2C)c1Cl (centres unmarked) [compound 14] | 100% |  | 100% | 100* % |  | [%] damage to weed IX (POLCO) (Polygonum convolvulus; 250 g/ha): 100% |
| CCS(=O)(=O)c1c(Cl)cc(F)c(C(=O)Nc2ncnn2C)c1Cl [compound 15] |  |  |  |  |  | [%] damage to weed IX (POLCO) (Polygonum convolvulus; 500 g/ha): 98%; [%] damage to weed VI (CHEAL) (Chenopodium album; 500 g/ha): 100%; [%] damage to weed III (AMARE) (Amaranthus retroflexus [1]; 500 g/ha): 100%; [%] damage to weed IV (APESV) (Agrostis spica-venti; 500 g/ha): 98* % |
| CC[S+]([O-])c1c(Cl)cc(F)c(C(=O)Nc2nnnn2C)c1Cl (centres unmarked) [compound 16, 2,4-Dichloro-3-ethylsulfinyl-6-fluoro-N-(1-methyltetrazol-5-yl)benzamide] | 100% |  | 100% | 100* % |  | [%] damage to weed IX (POLCO) (Polygonum convolvulus; 250 g/ha): 100% |
| CCOc1c(Cl)cc(F)c(C(=O)Nc2nnnn2C)c1Cl [compound 18] | 100% |  | 85% | 100* % | 98% |  |
| CCOc1c(Cl)cc(F)c(C(=O)Nc2nnnn2CCOC)c1Cl [compound 19] | 100% |  | 100% | 100* % | 100% |  |
| CCCSc1c(Cl)cc(F)c(C(=O)Nc2nnnn2C)c1Cl [compound 21] |  |  |  |  |  | [%] damage to weed I (ABUTH) (Abutilon theophrasti; 243 g/ha): 100* %; [%] damage to weed VI (CHEAL) (Chenopodium album; 243 g/ha): 100%; [%] damage to weed III (AMARE) (Amaranthus retroflexus [1]; 243 g/ha): 100%; [%] damage to weed VII (ECHCG) (Echinochloa crus-galli; 243 g/ha): 100% |
| CCSc1c(Cl)cc(Cl)c(C(=O)Nc2ncnn2C)c1Cl [compound 61] |  |  |  |  |  | [%] damage to weed VI (CHEAL) (Chenopodium album; 500 g/ha): 100%; [%] damage to weed III (AMARE) (Amaranthus retroflexus [1]; 500 g/ha): 100%; [%] damage to weed IV (APESV) (Agrostis spica-venti; 500 g/ha): 98* %; [%] damage to weed VII (ECHCG) (Echinochloa crus-galli; 500 g/ha): 98% |
| CCCn1ncnc1NC(=O)c1c(F)cc(Cl)c(SC)c1Cl [compound 62] | 100% |  | 100% |  | 98% | [%] damage to weed IV (APESV) (Agrostis spica-venti; 250 g/ha): 80* % |
| CCOc1c(Cl)cc(F)c(C(=O)Nc2nnnn2CC)c1Cl [compound 63] |  |  |  |  |  | [%] damage to weed IX (POLCO) (Polygonum convolvulus; 500 g/ha): 98%; [%] damage to weed VI (CHEAL) (Chenopodium album; 500 g/ha): 100%; [%] damage to weed III (AMARE) (Amaranthus retroflexus [2]; 500 g/ha): 100* %; [%] damage to weed III (AMARE) (Amaranthus retroflexus [1]; 500 g/ha): 100; % |
| COCCOc1c(Cl)cc(F)c(C(=O)Nc2ncnn2C)c1Cl [compound 69] | 100% |  | 98% | 100* % |  | [%] damage to weed IX (POLCO) (Polygonum convolvulus; 250 g/ha): 98% |
| COCCOc1c(Cl)cc(F)c(C(=O)Nc2nnnn2C)c1Cl [compound 70] | 100% |  | 98% | 100* % | 95% |  |

| SMILES | [%] damage to weed VI (CHEAL) (Chenopodium album; 250 g/ha) | [%] damage to weed III (AMARE) (Amaranthus retroflexus [2]; 250 g/ha) | [%] damage to weed III (AMARE) (Amaranthus retroflexus [1]; 250 g/ha) | [%] damage to weed I (ABUTH) (Abutilon theophrasti; 250 g/ha) | [%] damage to weed VII (ECHCG) (Echinochloa crus-galli; 250 g/ha) | other results |
| --- | --- | --- | --- | --- | --- | --- |
| CCn1nnnc1NC(=O)c1c(F)cc(Cl)c(OCCOC)c1Cl [compound 71] | 100% |  | 98% | 100* % | 80% |  |
| COCCn1nnnc1NC(=O)c1c(F)cc(Cl)c([S+](C)[O-])c1Cl (centres unmarked) [compound 74] |  |  |  |  |  | [%] damage to weed I (ABUTH) (Abutilon theophrasti; 110 g/ha): 98* %; [%] damage to weed VI (CHEAL) (Chenopodium album; 110 g/ha): 100%; [%] damage to weed III (AMARE) (Amaranthus retroflexus [1]; 110 g/ha): 100%; [%] damage to weed VII (ECHCG) (Echinochloa crus-galli; 110 g/ha): 100% |
| CCSc1c(Cl)cc(F)c(C(=O)Nc2nnnn2CCOC)c1Cl [compound 79] | 100% | 100* % | 100; % |  | 100% |  |
| CCS(=O)(=O)c1c(Cl)cc(F)c(C(=O)Nc2nnnn2CCOC)c1Cl [compound 80] |  |  |  |  |  | [%] damage to weed I (ABUTH) (Abutilon theophrasti; 125 g/ha): 100* %; [%] damage to weed VI (CHEAL) (Chenopodium album; 125 g/ha): 100%; [%] damage to weed III (AMARE) (Amaranthus retroflexus [1]; 125 g/ha): 100%; [%] damage to weed VII (ECHCG) (Echinochloa crus-galli; 125 g/ha): 100% |
| CSc1ccc(Cl)c(C(=O)Nc2ncnn2C)c1Cl [compound 81] | 100% |  | 100% |  | 98% | [%] damage to weed IV (APESV) (Agrostis spica-venti; 250 g/ha): 95* % |
| CSc1ccc(Cl)c(C(=O)Nc2nnnn2C)c1Cl [compound 82] | 100% | 100* % | 100; % |  | 98% |  |
| COCCn1nnnc1NC(=O)c1c(Cl)ccc(SC)c1Cl [compound 83] | 100% | 100* % | 100; % |  | 100% |  |
| COCCOc1ccc(Cl)c(C(=O)Nc2nnnn2C)c1Cl [compound 86] |  |  |  |  |  | [%] damage to weed I (ABUTH) (Abutilon theophrasti; 500 g/ha): 65* %; [%] damage to weed VI (CHEAL) (Chenopodium album; 500 g/ha): 100%; [%] damage to weed III (AMARE) (Amaranthus retroflexus [1]; 500 g/ha): 100%; [%] damage to weed IV (APESV) (Agrostis spica-venti; 500 g/ha): 98* %; [%] damage to weed VII (ECHCG) (Echinochloa crus-galli; 500 g/ha): 98% |
| CCSc1ccc(Cl)c(C(=O)Nc2ncnn2C)c1Cl [compound 87] | 100% | 98* % | 100; % |  | 98% |  |
| COCCn1nnnc1NC(=O)c1c(F)cc(Cl)c(OCCC(F)(F)F)c1Cl [compound 89, 2,4-Dichloro-6-fluoro-N-[1-(2-methoxyethyl)tetrazol-5-yl]-3-(3,3,3-trifluoropropoxy)-benzamide] | 100% | 100* % | 100; % |  | 100% |  |
| Cn1nnnc1NC(=O)c1c(F)cc(Cl)c(OCCC(F)(F)F)c1Cl [compound 91, 2,4-Dichloro-6-fluoro-N-(1-methyltetrazol-5-yl)-3-(3,3,3-trifluoropropoxy)benzamide] | 100% | 100* % | 100; % |  | 100% |  |
| CCn1nnnc1NC(=O)c1c(F)cc(Cl)c(OCCC(F)(F)F)c1Cl [compound 92, 2,4-Dichloro-N-(1-ethyltetrazol-5-yl)-6-fluoro-3-(3,3,3-trifluoropropoxy)benzamide] | 100% | 100* % | 100; % |  | 100% |  |
| CSc1c(F)cc(Cl)c(C(=O)Nc2ncnn2C)c1F [compound 94] | 100% |  | 100% |  | 95% | [%] damage to weed IV (APESV) (Agrostis spica-venti; 250 g/ha): 90* % |
| CSc1c(F)cc(Cl)c(C(=O)Nc2nnnn2C)c1F [compound 95] | 100% | 95* % | 100; % |  | 100% |  |
| CCSc1c(F)cc(Cl)c(C(=O)Nc2nnnn2C)c1F [compound 97] | 100% | 100* % | 100; % |  | 100% |  |
| COCCn1nnnc1NC(=O)c1c(Cl)cc(F)c(SC)c1F [compound 99] | 100% | 100* % | 100; % |  | 100% |  |
